Reference: patent US11752138B2 (VANDERBILT UNIVERSITY, priority 2020, dated 2023)

How the values were obtained:
Human LDHA = Human LDHA (Homo sapiens (Human), UniProt P00338); assay: human LDHA primary biochemical assay (Example 1); details: biochemical LDHA inhibitory activity, assay of Example 1
Source text: This example describes a human LDHA primary biochemical assay employed in the characterization of a compound of Formula I in an embodiment of the dislcosure.
Test compounds were placed in a Greiner Bio-One (Monroe, N.C.) 1536-well black solid bottom assay plate. 200 millimolar (mM) Tris HCl, pH 7.4, 100 micromolar (μM) EDTA and 0.01% TWEEN-20™, final concentration, was used as the assay buffer. The LDHA reagent was 2 nanomolar (nM) Human LDHA (Meridian Life Science, Inc., Memphis, Tenn.), final concentration, in assay buffer. The substrate reagent was 0.06 mM NADH and 0.2 mM sodium pyruvate, final concentration, in assay buffer. The resazurin/diaphorase coupling reagent was 0.037 mM resazurin and 0.133 milligrams per milliliter (mg/mL) diaphorase, final concentration, in assay buffer. The inhibition of LDHA activity was measured by fluorescence emission. […]

LDH = LDH activity in mice liver lysates, rate of conversion of glyoxylate to oxalate (FIG. 2); assay type: in vivo; details: 5-10 mg/kg, oral daily dose for 5 days; liver harvested two hours after last dose; wild type and AGXT null mice
Protocol: FIG. 2. LDH activity as measured by the rate of conversion of glyoxylate (G) to oxalate (O) in mice livers. Wild type mice, closed circles; AGXT null mice; open squares. […] Liver was harvested from animals two hours after delivery of the last drug dose. Enzyme assays were performed with liver lysates in 0.1M Glycine-Sodium hydroxide buffer, pH 9.6, 20 mM glyoxylate, 3.25 mM NAD+, and the rate of increase in absorbance at 340 nm monitored at room temperature

| Structure (SMILES) | IC50 (Human LDHA) | suppression of oxalate production in mice liver (LDH activity, glyoxylate to oxalate) (LDH) |
| --- | --- | --- |
| Cc1ccc(C#Cc2cccc(-c3nn(-c4nc(C(=O)O)co4)c(CC4CC4)c3Cc3ccc(S(N)(=O)=O)c(F)c3)c2)s1 [Compound 247, 2-(5-(cyclopropylmethyl)-4-(3-fluoro-4-sulfamoylbenzyl)-3-(3-((5-methylthiophen-2-yl)ethynyl)phenyl)-1H-pyrazol-1-yl)oxazole-4-carboxylic acid] | < 0.1 µM | Maximal suppression of oxalate production |
| NS(=O)(=O)c1ccc(Cc2c(-c3cccc(-c4ccc5c(c4)CCC5)c3)nn(-c3nc(C(=O)O)cs3)c2CC2CC2)cc1F [Compound 220, 2-(5-(cyclopropylmethyl)-3-(3-(2,3-dihydro-1H-inden-5-yl)phenyl)-4-(3-fluoro-4-sulfamoylbenzyl)-1H-pyrazol-1-yl)thiazole-4-carboxylic acid] | < 0.1 µM |  |
| Cc1ccc(C#Cc2cccc(-c3nn(-c4nc(C(=O)O)cs4)c(CCC4CC4)c3Cc3ccc(S(N)(=O)=O)c(F)c3)c2)o1 [Compound 232, 2-(5-(2-cyclopropylethyl)-4-(3-fluoro-4-sulfamoylbenzyl)-3-(3-((5-methylfuran-2-yl)ethynyl)phenyl)-1H-pyrazol-1-yl)thiazole-4-carboxylic acid] | < 0.1 µM |  |
